Reference: ChEMBL document CHEMBL5537109, “Natural products as potential lead compounds to develop new antiviral drugs over the past decade” (Eur J Med Chem, 2023)
Numbered stars: 1 amine (or outer) side, 2 acyl side, 3 side chain; on linkers, the order of the positions; unused ones are H or OH. Bridge positions count the residues as written; N and C are the ends. Square brackets hold non-standard residues; d marks the D form. Peptide text beside a SMILES is read from it. X2 = CCCCCCCCC[C@@H](CCCC(=O)[*:1])O[*:2]; d(aThr) = C[C@@H](O)[C@@H](N)C(=O)O; aIle = CC[C@@H](C)[C@H](N)C(=O)O

Key:
[1] = target: Human immunodeficiency virus type 1 protease (Human immunodeficiency virus 1, UniProt Q72874); assay: Inhibition of HIV-1 protease
[2] = tested on: Human immunodeficiency virus 1; assay: Antiviral activity against HIV-1 infected in human MT4 cells assessed as reduction in viral replication; type: functional; conditions: Human immunodeficiency virus 1, MT4
[3] = Cytotoxicity against human C8166 cells assessed as inhibition of cell growth incubated for 48 hrs by MTT assay; type: toxicity, cell-based
[4] = tested on: Human immunodeficiency virus 1; assay: Anti-HIV activity against HIV-1 IIIB infected in human C8166 cells assessed as inhibition of virus-induced cytopathic effect by MTT assay; type: functional, organism-based; conditions: Human immunodeficiency virus 1, IIIB
[5] = tested on: Influenza A virus; assay: Antiviral activity against influenza A virus H5N1 infected in dog MDCK cells assessed as viral growth inhibition; type: functional, organism-based
[6] = tested on: Influenza A virus; assay: Antiviral activity against influenza A virus H1N1(A/PR/8/34) infected in MDCK cells assessed as inhibition of cytopathic effect incubated for 48 hrs by MTT assay; type: functional, organism-based
[7] = Inhibition of Influenza A virus A/California/04/2009 (H1N1) N-terminal his tagged domain of PA endonuclease expressed in Escherichia coli BL21 (DE3) cells
[8] = tested on: Influenza A virus; assay: Antiviral activity against influenza A virus A/Hong Kong/1/68 (HK1, H3N2) infected in dog MDCK cells assessed as cytopathic effect; type: functional, organism-based
[9] = Cytotoxicity against MDCK cells assessed as inhibition of cell growth incubated for 48 hrs by MTT assay; type: toxicity, cell-based, Canis lupus familiaris; conditions: dog
[10] = tested on: Human immunodeficiency virus 1; assay: Antiviral activity against wild-type HIV-1 NL4-3 infected in human MT4 cells assessed as inhibition of viral growth by measuring reduction in p24 antigen level incubated for 3 to 7 days by ELISA analysis; type: functional, organism-based; conditions: Human immunodeficiency virus 1, NL4-3, MT4
[11] = tested on: Human immunodeficiency virus 1; assay: Antiviral activity against HIV-1 harboring reverse transcriptase infected in human MT4 cells assessed as reduction in virus-induced cytopathic effect; type: functional, organism-based; conditions: Human immunodeficiency virus 1, MT4
[12] = tested on: RAW264.7; assay: Cytotoxicity against mouse RAW264.7 cells assessed as reduction in cell viability incubated for 24 hrs by CCK-8 method; type: functional
[13] = tested on: Human immunodeficiency virus 1; assay: Antiviral activity against HIV1 infected in C8166 cells assessed as reduction in viral replication measured after 3 days by ELISA; type: functional, organism-based
[14] = Cytotoxicity against human C8166 cells assessed as reduction in cell growth by MTT assay; type: toxicity, cell-based
[15] = Cytotoxicity against human C8166 cells assessed as inhibition of cell growth by MTT assay; type: toxicity, cell-based
[16] = tested on: Human alphaherpesvirus 1; assay: Antiviral activity against HSV-1 assessed as inhibition of viral growth; type: functional, organism-based
[17] = Cytotoxicity against African green monkey Vero cells assessed as reduction in cell viability measured after 72 hrs by MTT assay; type: toxicity, cell-based; conditions: chlorocebus sabaeus
[18] = tested on: Human alphaherpesvirus 1; assay: Antiviral activity against HSV-1 KOS infected in African green monkey Vero cells assessed as reduction in virus induced cytopathogenicity by plaque reduction assay; type: functional, organism-based; conditions: Human alphaherpesvirus 1, KOS
[19] = Cytotoxicity against African green monkey Vero E6 cells assessed as reduction in cell growth incubated for 24 hrs by WST-8 assay; type: toxicity, cell-based, Vero C1008; conditions: chlorocebus sabaeus
[20] = tested on: SARS-CoV-2; assay: Antiviral activity against SARS-CoV-2 NVDBB-2220 infected in African green monkey Vero cells assessed as reduction in virus-induced cytopathic effect incubated for 5 days by microscopic analysis; type: functional, organism-based; conditions: Severe acute respiratory syndrome coronavirus 2, NVDBB-2220, Vero, 120 h
[21] = tested on: SARS-CoV-2; assay: Antiviral activity against SARS-CoV-2 infected in African green monkey Vero cells assessed as reduction in viral replication; type: functional, organism-based; conditions: Severe acute respiratory syndrome coronavirus 2, Vero
[22] = Cytotoxicity against African green monkey Vero cells assessed as reduction in cell viability measured after 72 hrs by MTS assay; type: toxicity, cell-based; conditions: chlorocebus sabaeus
[23] = tested on: Huh-7; assay: Cytotoxicity against human Huh-7 cells assessed as reduction in cell viability incubated for 72 hrs by MTT assay; type: functional
[24] = tested on: HEK-293T; assay: Cytotoxicity against human HEK293T cells assessed as cell growth inhibition measured after 72 hrs by MTT assay; type: functional

With `C=C(C)[C@]12C[C@@H](COC(C)=O)[C@@]3(OO1)[C@@H]1[C@H]2OCCCCCC[C@@H](C)[C@H]2[C@H](C)[C@H](OC(=O)c4ccccc4)[C@@](O)([C@H](O)[C@@]4(CO)O[C@@H]14)[C@@H]23` the IC50 [1] was 4.3 µM and the EC90 [2] was 0.0004 µM.

`COc1cc(OC)c2c(c1OC)C[C@H]1NCCc3cc4c(c-2c31)OCO4` gave a CC50 at 48 h [3] of 43.6 µM and an EC50 [4] of 5.8 µM.

`O=C(O[C@H]1[C@H](Oc2ccc(O)cc2C(=O)O)O[C@H](CO)[C@@H](O)[C@@H]1OC(=O)c1cc(O)c(O)c(O)c1)c1cc(O)c(O)c(O)c1` showed an IC50 [5] of 24.6 µM, an EC50 [6] of 30.7 µM and an IC50 [7] of 30.7 µM. The EC50 [8] was 28.2 µM and the CC50 at 48 h [9] was > 1000 µM.

Molecule `O=C1C=C2C[C@H](O[C@H]3C[C@@]45OC(=O)C=C4C[C@@H]3N3CCCC[C@H]35)[C@@H]3C[C@@]2(O1)[C@H]1CCCN31` has an EC50 [10] of 120 µM.

For `C=C(C)[C@@]1(OC(C)=O)[C@H](OC(C)=O)[C@@H]2[C@H](OC(C)=O)[C@@]3(C)O[C@@]4([C@@H]3O)[C@@H](OC(=O)c3ccccc3)[C@@H](C)C[C@H]4[C@@]2(O)[C@H](C)[C@@H]1OC(=O)c1ccccc1`, the EC50 [11] was 0.21 µM and the CC50 [12] was > 200 µM.

Work on `C=C(C)[C@]12C[C@@H](COC(C)=O)[C@@]34OC5(O[C@@H]1[C@@H]3[C@@H]1O[C@]1(CO)[C@@H](O)[C@@]1(O)[C@H]4[C@H]([C@H](C)[C@@H]1OC(=O)c1ccccc1)[C@H](C)C[C@H](OC(=O)c1ccccc1)[C@H](OC(=O)c1ccccc1)CCC[C@H]5O)O2` yielded an EC50 [10] of 0.00025 µM.

Molecule `O=C1C=C2[C@H]3C=CC[C@]2(O1)[C@H]1CCCCN31` has an EC50 [10] of 45 µM.

Work on `O=C(OC[C@H]1O[C@@H](Oc2ccc(O)cc2C(=O)O)[C@H](O)[C@@H](OC(=O)c2cc(O)c(O)c(O)c2)[C@@H]1O)c1cc(O)c(O)c(O)c1` yielded an IC50 [5] of 11.6 µM, an EC50 [6] of 20.2 µM and an IC50 [7] of 29.2 µM. The EC50 [8] was 33.3 µM and the CC50 at 48 h [9] was 964 µM.

With `C=C(C)[C@@]1(OC(=O)c2ccccc2)[C@H](OC(C)=O)[C@@H]2[C@H](OC(C)=O)[C@@]3(C)O[C@@]4([C@@H]3O)[C@@H](OC(=O)c3ccccc3)[C@@H](C)C[C@H]4[C@@]2(O)[C@H](C)[C@@H]1OC(C)=O` the EC50 [11] was 0.095 µM and the CC50 [12] was > 200 µM.

With `CC(C)CC(=O)O[C@H]1/C=C/C=C\C(=O)O[C@H]2[C@@H](C)C[C@@H]3[C@]2(O)[C@H](O)[C@@]2(CO)O[C@H]2[C@H]2[C@H]4OC5(c6ccccc6)O[C@@H]([C@@H](C)[C@@]23O5)[C@@]4(O)[C@](C)(O)C[C@H]2CC[C@H]1[C@H]2C` the EC50 [13] was 0.76 10^-3nmol and the CC50 [14] was 0.0222 µM.

For `C=CC(C)(C)c1cc2cc3c(c(CC=C(C)C)c2oc1=O)O[C@H](C(C)(C)O)C3`, the CC50 [15] was > 200 µM.

In the case of `CCCCCCCCC[C@H]1CCCC(=O)N[C@H]([C@@H](C)O)C(=O)N[C@H](C)C(=O)N2CCC[C@H]2C(=O)N[C@@H](CCC(N)=O)C(=O)N[C@H](Cc2ccc(O)cc2)C(=O)N[C@@H]([C@H](C)CC)C(=O)O1` ([d(aThr)][dA]PQ[dY][aIle]; linker N-C via X2), the EC50 [16] is reported as 14 µM.

`COc1ccc2c(c1)N=C1c3cc(-c4nccc5c4[nH]c4cc(OC)ccc45)c(C)n3CCC12O` (racemic) gave a CC50 at 72 h [17] of 74.2 µM and an EC50 [18] of 2.12 µM.

With `O=C1c2c(O)cc(O)cc2O[C@H](c2cc(O)c(O)c(O)c2)[C@H]1O` [AMPELOPSIN] the CC50 at 24 h [19] was > 200 µM.

With `C=C1C(=O)O[C@@]23[C@H]1CC[C@@H](C)[C@@H]2CC[C@@]1(C)O[C@@H]31` [ARTEANNUIN B] the EC50 [20] was 10.3 µM.

For `C[C@H]1[C@H](OC(=O)CCC(=O)O)O[C@@H]2O[C@@]3(C)CC[C@H]4[C@H](C)CC[C@@H]1[C@@]24OO3` [ARTESUNATE], the EC50 [20] was 13 µM.

For `O=c1cc(-c2ccccc2)oc2cc(O)c(O)c(O)c12` [BAICALEIN], the CC50 at 24 h [19] was > 200 µM.

With `CC[C@H]1CN2CCc3cc(OC)c(OC)cc3[C@@H]2C[C@@H]1C[C@H]1NCCc2cc(O)c(OC)cc21` [CEPHAELINE] the EC50 [21] was 0.0123 µM, the CC50 at 72 h [22] was 46.3 µM and the CC50 [23] was 3.03 µM. For the same molecule, the CC50 [24] was 2 µM.

`CC[C@H]1CN2CCc3cc(OC)c(OC)cc3[C@@H]2C[C@@H]1C[C@H]1NCCc2cc(OC)c(OC)cc21` [EMETINE] showed an EC50 [21] of 7.71 µM, a CC50 at 72 h [22] of 2.17 µM and a CC50 [23] of 33.4 µM. For the same molecule, the CC50 [24] was 37.8 µM.

For `O[C@H]1[C@H]2c3cc4c(cc3CN3CCC(=C[C@@H]1O)[C@H]23)OCO4` [LYCORINE], the EC50 [21] was 0.439 µM, the CC50 at 72 h [22] was > 1000 µM and the CC50 [23] was 0.834 µM. For the same molecule, the CC50 [24] was 1.04 µM.

In the case of `O=c1c(O)c(-c2cc(O)c(O)c(O)c2)oc2cc(O)cc(O)c12` [MYRICETIN], the CC50 at 24 h [19] is reported as > 200 µM.
